Measurements: patent publication US20250074911A1, “MACROCYCLIC BTK INHIBITORS” (Crossfire Oncology Holding B.V., priority 2021, published 2025)
“And” between values parts separate entries of the source, which are not always exact repeats. Identical values can stand only once.

Assays:
[1] = target: full-length wt-BTK enzyme (Homo sapiens (Human), UniProt Q06187); experiment: Biochemical kinase assay wt-BTK (IMAP)
Summary of the method: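 Compound and enzyme (final 1.2 nM) were pre-incubated for 1 h at RT, after which the reaction was started with 4 μM ATP plus 50 nM fluorescein-MBP substrate peptide. After 2 h in the dark, the IMAP progressive binding reagent stopped the reaction, and phosphorylation was read by fluorescence polarization.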

[2] = target: full-length BTK C481S enzyme (Homo sapiens (Human), UniProt Q06187, C481S); experiment: Biochemical kinase assay BTK C481S (IMAP)
Summary of the method: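 IC50 values come from IMAP fluorescence polarization after quenching with progressive binding solution. The reaction ran 2 h at room temperature in the dark with 1.2 nM full-length C481S enzyme, 7 μM ATP and 50 nM fluorescein-labelled MBP-derived peptide, following a 1 h dark pre-incubation of compound with enzyme.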

[3] = system: wt-REC-1 mantle cell lymphoma cells; experiment: Cell proliferation assay wt-REC-1 (ATPlite, 72 hours); type: cell-based; details: 72 h; read-out: IC50 wt-REC-1
Summary of the method: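 Luminescent viability read over 72 h, start-of-incubation signal recorded separately to separate growth from cell death. Percentage growth referenced to compound-free 0.3% DMSO wells; IC50 from 4-parameter logistic fit.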

[4] = system: REC-1 T474I cell lines; experiment: Cell proliferation assay REC-1 BTK T474I knock-in cells (ATPlite, 72 hours); type: cell-based; details: Homo sapiens, Rec1; 72 hours; read-out: IC50 REC-1 T474I
Summary of the method: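 REC-1 cells carrying CRISPR knock-in mutant BTK, single-cell cloned and sequence-confirmed, were exposed to compound for 72 h and read by ATPlite luminescence. Percentage growth was calculated against the signal at the start of incubation and against untreated 0.3% DMSO wells as maximum growth.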

[5] = target: wt-BTK (Homo sapiens (Human), UniProt Q06187); experiment: Binding kinetics measurements (Surface Plasmon Resonance) on wt-BTK; details: for Tau (h) wt-BTK (Act): target residence time, SPR; for Kd: binding affinity by Surface Plasmon Resonance (SPR)
Description: (§1) Binding kinetics measurements on wt-BTK, BTK […], BTK […], BTK […] and BTK […] (Surface Plasmon Resonance) Streptavidin-coated chips (Cat. No. BR100531), disposables and maintenance kits for Biacore were purchased from Cytiva (Eindhoven, The Netherlands). […] Remaining streptavidin was blocked with biocytin. Immobilization was performed at 4° C. Subsequent assay steps were conducted at 22° C. After changing buffer to Biacore buffer with 1% (v/v) dimethylsulfoxide (DMSO), a pre-run was performed for a period of at least 30 min at a flow rate of 30 μl/min to obtain a stable surface. The kinetic constants of the compounds were determined with single cycle kinetics with five consecutive injections with an increasing compound concentration with ranges of 3.16-316 nM. […] To circumvent problems of mass transport limitation, a flow rate of 30 μl/min was used. A blank run with the same conditions was performed before the compound was injected. The SPR sensorgrams were analyzed with Biacore Evaluation Software by using a method of double referencing. First the reference channel was subtracted from the channel containing immobilized protein. Subsequently, the reference curve obtained with buffer injections was subtracted. […] Compounds that bound according to an induced fit model were fitted with a two-state reaction model. The kinetic constants (ka, […], KD) of duplicates were geometrically averaged. […] Target residence for an induced fit model was calculated as described (Tummino and Copeland, 2008).

[6] = target: BTK C481S (Homo sapiens (Human), UniProt Q06187, C481S); experiment: Binding kinetics measurements (Surface Plasmon Resonance) on BTK C481S; details: for Kd: binding affinity by Surface Plasmon Resonance (SPR); for Tau (h) BTK C418S (Act): target residence time for BTK C481S, SPR
Description: as §1

[7] = target: BTK T474I (Homo sapiens (Human), UniProt Q06187, T474I); experiment: Binding kinetics measurements (Surface Plasmon Resonance) on BTK T474I; details: for Kd: binding affinity by Surface Plasmon Resonance (SPR); for Tau (h) BTK T474I (Act): target residence time, SPR
Description: as §1

[8] = target: BTK T474S (Homo sapiens (Human), UniProt Q06187, T474S); experiment: Binding kinetics measurements (Surface Plasmon Resonance) on BTK T474S; details: for residence time: SPR binding kinetics, BTK T474S, read-out: Tau (h) BTK T474S (Act), target residence time (converted); for Kd: binding affinity by Surface Plasmon Resonance (SPR)
Description: as §1

[9] = system: wt-TMD8 diffuse large B-cell lymphoma cells; experiment: Cell proliferation assay wt-TMD8 (ATPlite, 120 hours); type: cell-based; details: B-cell; wt-TMD8 cells, 120 hours, ATPlite; read-out: IC50 wt-TMD8
Summary of the method: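 Readout is percentage growth from ATPlite 1Step luminescence after 5 days (120 h) compound treatment of wt-TMD8 lymphoma cells (1600/well, RPMI-1640 + 10% FBS). Time-zero signal separates growth inhibition from cell kill; 0.3% DMSO wells without compound define maximal growth.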

[10] = target: BTK T316A (Homo sapiens (Human), UniProt Q06187, T316A); experiment: Binding kinetics measurements (Surface Plasmon Resonance) on BTK T316A
Description: as §1

Sequence of wt-BTK (Q06187 whole entry): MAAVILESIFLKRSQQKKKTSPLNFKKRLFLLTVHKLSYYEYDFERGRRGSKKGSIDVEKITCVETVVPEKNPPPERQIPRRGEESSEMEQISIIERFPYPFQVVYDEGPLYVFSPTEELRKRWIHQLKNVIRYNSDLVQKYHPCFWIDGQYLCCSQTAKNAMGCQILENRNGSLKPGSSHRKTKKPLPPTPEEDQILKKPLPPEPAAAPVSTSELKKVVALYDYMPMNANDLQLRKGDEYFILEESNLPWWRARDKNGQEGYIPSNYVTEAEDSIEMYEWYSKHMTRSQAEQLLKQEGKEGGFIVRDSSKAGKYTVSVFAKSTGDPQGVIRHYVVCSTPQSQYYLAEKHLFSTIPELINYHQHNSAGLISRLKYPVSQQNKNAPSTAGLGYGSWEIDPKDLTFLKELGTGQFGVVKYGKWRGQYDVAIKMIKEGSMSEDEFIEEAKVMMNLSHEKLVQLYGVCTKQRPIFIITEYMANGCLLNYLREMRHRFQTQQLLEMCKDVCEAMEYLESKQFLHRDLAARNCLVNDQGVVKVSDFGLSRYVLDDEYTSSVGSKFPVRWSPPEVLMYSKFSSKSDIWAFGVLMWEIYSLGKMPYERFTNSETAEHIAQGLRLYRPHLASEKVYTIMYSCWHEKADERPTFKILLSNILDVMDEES
Sequence of full-length wt-BTK enzyme (Q06187 whole entry): as above
Sequence of BTK T474I (Q06187 whole entry T474I): as the sequence (Q06187 whole entry) above, with T474I counted along it
Sequence of BTK T474S (Q06187 whole entry T474S): as the sequence (Q06187 whole entry) above, with T474S counted along it
Sequence of full-length BTK C481S enzyme (Q06187 whole entry C481S): as the sequence (Q06187 whole entry) above, with C481S counted along it
Sequence of BTK C481S (Q06187 whole entry C481S): as the sequence (Q06187 whole entry) above, with C481S counted along it
Sequence of BTK T316A (Q06187 whole entry T316A): as the sequence (Q06187 whole entry) above, with T316A counted along it

Row | IC50 [1] [nM] | IC50 [2] [nM] | IC50 [3] [nM] | Tau (h) wt-BTK (Act) [5] [h] | Kd [6] [nM] | Tau (h) BTK C418S (Act) [6] [h] | Kd [7] | Tau (h) BTK T474I (Act) [7] [h] | residence time [8] [h] | IC50 [9] [nM] | Kd [5] [nM] | Kd [8] [nM] | Kd ([10]; binding affinity by Surface Plasmon Resonance (SPR)) [nM] | Tau (h) BTK T316A (Act) ([10]; target residence time, SPR) [h] | Compound | IC50 [4] [nM]
1 | < 5 | < 5 | < 100 | 7.36 | < 5 | 4.06 | < 2 nM | 1.14 | 3.01 | < 100 |  |  |  |  | C[C@@H]1CC(=O)N[C@@H]2CCC[C@H](C2)c2nc(-c3ccc(C(=O)Nc4cc(C(F)(F)F)ccn4)cc3)c3c(N)ncc(n23)/C=C/CCN1 [Example 179] | 100 to 500
2 | < 5 | < 5 | < 100 | 4.28 |  | 18.16 |  | 1.44 |  | < 100 |  |  |  |  | Nc1ncc2n3c(nc(-c4ccc(C(=O)Nc5cc(C(F)(F)F)ccn5)cc4)c13)[C@@H]1CC[C@H](C1)NC(=O)CCOC/C=C/2 [Example 198] | 
3 | < 5 | < 5 | 100 to 1000 |  |  |  | 10 to 50 nM and < 5 nM |  | 1.35 | < 100 | < 5 | < 3 |  |  | COc1ccc(F)cc1C(=O)NCc1ccc(-c2nn3c4c(cnc(N)c24)/C=C/COCC(=O)N[C@@H]2CCC[C@@H]3C2)cc1 [Example 52] | 500 to 10000
4 | < 5 | < 5 | 100 to 1000 |  | < 5 | 1.85 | 10 to 50 nM and < 5 nM |  |  | < 100 | < 5 |  |  |  | Nc1ncc2c3c1c(-c1ccc(C(=O)Nc4cc(C(F)(F)F)ccn4)cc1)nn3[C@@H]1CCC[C@H](C1)NC(=O)CCCCCC2 [Example 114] | 500 to 10000
5 | < 5 | < 5 | < 100 | 18.83 |  |  |  | 2.13 | 13.6 | < 100 |  | < 5 |  |  | COc1ccc(F)cc1C(=O)NCc1ccc(-c2nn3c4c(cnc(N)c24)/C=C/CCCCCC(=O)N[C@@H]2CCC[C@@H]3C2)cc1 [Example 187] | 100 to 500
6 | < 5 | < 5 | < 100 | 2.95 |  |  |  |  | 5.65 | < 100 |  |  |  |  | C[C@@H]1CC(=O)N[C@@H]2CC[C@H](C2)n2nc(-c3ccc(C(=O)Nc4cc(C#N)ccn4)cc3)c3c(N)ncc(c32)/C=C/CCN1 [Example 181] | 500 to 10000
7 | < 5 | < 5 | < 100 | 2.96 |  |  |  | 1.07 | 1.03 | < 100 |  |  |  |  | N#Cc1ccnc(NC(=O)c2ccc(-c3nn4c5c(cnc(N)c35)/C=C/CCCCCC(=O)N[C@@H]3CC[C@@H]4C3)cc2)c1 [Example 182] | < 100
8 | < 5 | < 5 | < 100 | 2.55 | < 5 | 8.44 | < 2 nM |  |  | < 100 | < 5 |  |  |  | C[C@@H]1CC(=O)N[C@@H]2CC[C@H](C2)c2nc(-c3ccc(C(=O)Nc4cc(C(F)(F)F)ccn4)cc3)c3c(N)ncc(n23)/C=C/CCN1 [Example 207] | 500 to 10000
9 | < 5 | < 5 | < 100 | 2.12 |  | 2.23 |  | 0.77 |  | < 100 |  |  |  |  | N#Cc1ccnc(NC(=O)c2ccc(-c3nc4n5c(cnc(N)c35)/C=C/COCCC(=O)N[C@@H]3CCC[C@@H]4C3)cc2)c1 [Example 200] | 500 to 10000
10 | < 5 | < 5 | < 100 | >24 | < 5 | 4.15 |  | >24 | > 24 | < 100 |  | < 5 |  |  | N#Cc1ccnc(NC(=O)c2ccc(-c3nn4c5c(cnc(N)c35)/C=C/COCCC(=O)N[C@@H]3CC[C@@H]4C3)cc2)c1 [Example 183] | < 100
11 | < 5 | < 5 | < 100 | 2.20 |  | 3.15 |  | 2.16 |  | < 100 |  |  |  |  | Nc1ncc2n3c(nc(-c4ccc(C(=O)Nc5cc(C(F)(F)F)ccn5)cc4)c13)[C@@H]1CC[C@H](C1)NC(=O)CCOCC/C=C/2 [Example 202] | < 100
12 | < 5 | < 5 | < 100 | 7.42 |  |  | < 2 nM | 1.16 | 7.27 | < 100 |  |  |  |  | C[C@@H]1CC(=O)N[C@@H]2CCC[C@H](C2)n2nc(-c3ccc(C(=O)Nc4cc(C#N)ccn4)cc3)c3c(N)ncc(c32)/C=C/CCN1 [Example 180] | 100 to 500
13 | < 5 | < 5 | < 100 | 1.69 |  | 1.28 |  | 0.54 |  | < 100 |  |  |  |  | N#Cc1ccnc(NC(=O)c2ccc(-c3nc4n5c(cnc(N)c35)/C=C/COCCC(=O)N[C@@H]3CC[C@@H]4C3)cc2)c1 [Example 199] | 500 to 10000
14 | < 5 | < 5 | < 100 | 6.70 |  |  | < 2 nM | >24 |  | < 100 | < 5 |  |  |  | Nc1ncc2c3c1c(-c1ccc(C(=O)Nc4cc(F)ccn4)cc1)nn3[C@@H]1CCC[C@H](C1)NC(=O)CCOCC/C=C/2 [Example 193] | < 100
15 | < 5 | < 5 | < 100 | 2.29 |  |  | < 2 nM | 0.93 |  | < 100 | < 5 |  |  |  | COc1ccc(F)cc1C(=O)NCc1ccc(-c2nc3n4c(cnc(N)c24)/C=C/CCOCCC(=O)N[C@@H]2CC[C@@H]3C2)cc1 [Example 213] | < 100
16 | < 5 | < 5 | < 100 | 1.80 |  |  |  | 1.15 |  | < 100 |  |  |  |  | N#Cc1ccnc(NC(=O)c2ccc(-c3nc4n5c(cnc(N)c35)/C=C/CCOCCC(=O)N[C@@H]3CCC[C@@H]4C3)cc2)c1 [Example 205] | < 100
17 | < 5 | < 5 | < 100 | 4.47 |  |  | < 2 nM | 3.61 |  | < 100 | < 5 |  | < 5 | 16.05 | Nc1ncc2c3c1c(-c1ccc(C(=O)Nc4cc(C(F)(F)F)ccn4)cc1)nn3[C@@H]1CCC[C@H](C1)C(=O)NCCCCC/C=C/2 [Example 2] | < 100
18 | < 5 | < 5 | < 100 | 3.69 |  |  |  | 1.60 |  | < 100 |  |  |  |  | Nc1ncc2n3c(nc(-c4ccc(C(=O)Nc5cc(OC(F)F)ccn5)cc4)c13)[C@@H]1CC[C@H](C1)NC(=O)CCOCC/C=C/2 [Example 224] | < 100
